In brackets after ≈: the same amount, converted by molar mass.
Assay: Cytotoxicity against human HepG2(2.2.15) cells after 3 day
Assay type: functional, cell-based
Conditions: HepG2 2.2.15, 72 h

Q: For `COc1cccc2c1C(=O)c1c(O)c3c(c(O)c1C2=O)C[C@@](O)(C(=O)CO)C[C@@H]3O[C@H]1C[C@H](N)[C@H](O)[C@H](C)O1` [DOXORUBICIN], which IC50 is on record?
A: The IC50 was 0.45 µg/mL (≈ 0.828 µM).

Source: ChEMBL document CHEMBL1144147, “New annonaceous acetogenins from Rollinia mucosa” (J Nat Prod, 1999)
